Laboratory results published in patent publication US20160145242A1, “PHENYLIMIDAZOLE DERIVATIVE, AND THERAPEUTIC MEDICINE OR PREVENTIVE MEDICINE FOR INFLAMMATORY DISEASE, ETC” (NIPPON SODA CO., LTD., priority 2013, published 2016).

Assays:
CYP2D6 = molecular target: T1, CYP2D6 (Homo sapiens, UniProt P10635); assay: Cytochrome P450 inhibitory action, CYP2D6 in human liver microsomes; format: in vitro ADME; details: substrate dextromethorphan
T1 construct: Using human liver microsomes pooled as an enzyme source; from tissue; host or cells: pooled human liver microsomes
T1 sequence (P10635 whole entry): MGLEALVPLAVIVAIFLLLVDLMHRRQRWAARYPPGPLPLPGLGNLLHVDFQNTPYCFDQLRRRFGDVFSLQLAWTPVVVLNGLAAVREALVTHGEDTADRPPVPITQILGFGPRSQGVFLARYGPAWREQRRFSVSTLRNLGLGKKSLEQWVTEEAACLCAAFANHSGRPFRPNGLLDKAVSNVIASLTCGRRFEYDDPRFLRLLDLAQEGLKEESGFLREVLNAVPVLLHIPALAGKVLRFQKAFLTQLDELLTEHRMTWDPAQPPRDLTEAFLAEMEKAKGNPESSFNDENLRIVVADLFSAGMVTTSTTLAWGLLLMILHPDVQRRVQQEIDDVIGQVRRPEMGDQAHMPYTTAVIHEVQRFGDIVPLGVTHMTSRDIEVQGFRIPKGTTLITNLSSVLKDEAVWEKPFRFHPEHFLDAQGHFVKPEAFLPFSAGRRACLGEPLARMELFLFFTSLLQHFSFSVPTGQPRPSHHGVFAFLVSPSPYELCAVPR
Procedure: An inhibitory action of the compound of the present invention with respect to CYP2D6 (dextromethorphan was used as a substrate) and CYP3A4 (midazolam and testosterone were used as substrates) which are isozymes of cytochrome P450 (hereinafter, referred to as “CYP”) serving as a major drug-metabolizing enzyme was examined using human liver microsomes.
Using human liver microsomes pooled as an enzyme source, 1.3 mM NADP as a coenzyme, 3.3 mM D-glucose-6-phosphate, and 0.4 U/mL D-glucose-6-phosphate dehydrogenase, the corresponding substrate ([…] dextromethorphan for CYP2D6, 5 μM midazolam or 50 µM testosterone for CYP3A4) and the compound of the present invention were added such that the final concentration became 0.1, 1, 10 μM and then incubated at 37° C. for 10 minutes. The inhibition rate (%) of the compound of the present invention in each concentration was calculated by quantifying metabolites (CYP2D6; dextrorphan, CYP3A4; 1-hydroxymidazolam or 6β hydroxytestosterone) using HPLC-MS/MS and setting the value of the activity of an enzyme when drug was not incorporated therein as 100%. […]

[1] = molecular target: T2, rabbit reticulocyte-derived 15-lipoxygenase (Oryctolagus cuniculus, UniProt P12530); assay: 15-Lipoxygenase activity inhibitory action; format: biochemical
T2 construct: Rabbit reticulocyte-derived 15-lipoxygenase; from tissue; host or cells: rabbit reticulocytes
T2 sequence (P12530 1-663): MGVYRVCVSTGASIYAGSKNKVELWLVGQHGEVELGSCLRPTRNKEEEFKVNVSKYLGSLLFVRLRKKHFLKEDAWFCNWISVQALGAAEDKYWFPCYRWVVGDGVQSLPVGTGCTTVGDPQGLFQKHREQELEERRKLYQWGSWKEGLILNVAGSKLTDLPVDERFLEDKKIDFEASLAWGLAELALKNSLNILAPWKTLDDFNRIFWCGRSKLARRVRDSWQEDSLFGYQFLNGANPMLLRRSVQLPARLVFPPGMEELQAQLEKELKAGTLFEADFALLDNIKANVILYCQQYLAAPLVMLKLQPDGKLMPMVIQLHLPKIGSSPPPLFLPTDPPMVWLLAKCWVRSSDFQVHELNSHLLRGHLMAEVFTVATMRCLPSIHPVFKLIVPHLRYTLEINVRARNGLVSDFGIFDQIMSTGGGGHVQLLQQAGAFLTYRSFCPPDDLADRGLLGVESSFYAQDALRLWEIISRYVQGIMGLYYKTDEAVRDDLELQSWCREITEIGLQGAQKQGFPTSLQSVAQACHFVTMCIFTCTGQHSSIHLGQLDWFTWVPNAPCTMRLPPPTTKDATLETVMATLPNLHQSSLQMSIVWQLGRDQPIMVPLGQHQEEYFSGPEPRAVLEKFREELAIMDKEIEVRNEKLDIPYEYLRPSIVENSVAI
Procedure: The inhibitory action of the compound of the present invention with respect to the activity of the present enzyme was examined using rabbit reticulocyte-derived 15-lipoxygenase.
Rabbit reticulocyte-derived 15-lipoxygenase was reacted with 260 μM of linoleic acid and the amount of 13-hydroperoxide which was a reaction product was measured using an absorption spectrometer.

[2] = test system: human recombinant MAP kinase 1; assay: MAP kinase 1 activity inhibitory action; format: biochemical; details: 3 μM
Procedure: The inhibitory action of the compound of the present invention with respect to the activity of the present enzyme was examined using human recombinant MAP kinase 1.
The human recombinant MAP kinase 1 was reacted with 50.0 μg/mL of myelin basic protein and the amount of ^32P phosphorylated myelin basic protein which was a reaction product was measured by a radioactivity measurement method. 3 μM of the compound according to the present invention dissolved in dimethyl sulfoxide was added to the reaction system and the inhibition rate of ^32P phosphorylated myelin basic protein generation (MAP kinase 1 activity inhibition rate) was measured.

[3] = molecular target: T3, guinea pig lung-derived leukotriene C4 synthase (Cavia porcellus, UniProt A6XA80); assay: Leukotriene C4 synthase activity inhibitory action; format: biochemical; details: read-out: leukotriene C4 synthase activity inhibition rate
T3 construct: guinea pig lung-derived leukotriene C4 synthase; from tissue; host or cells: Dunkin-Hartley guinea pig lung
T3 sequence (A6XA80 1-150): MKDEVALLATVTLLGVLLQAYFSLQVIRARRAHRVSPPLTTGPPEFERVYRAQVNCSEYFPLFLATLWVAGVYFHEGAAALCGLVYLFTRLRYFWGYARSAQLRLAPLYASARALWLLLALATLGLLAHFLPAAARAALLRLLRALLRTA
Procedure: The inhibitory action according to the compound of the present invention with respect to the activity of the present enzyme was examined using guinea pig lung-derived leukotriene C4 synthase.
Dunkin-Hartley guinea pig lung-derived leukotriene C4 synthase was reacted with 2.50 μg/mL of leukotriene A4 and the amount of leukotriene C4 which was a reaction product was measured by an enzyme-linked immunosorbent assay. 3 μM of the compound of the present invention dissolved in dimethyl sulfoxide was added to the reaction system and the inhibition rate of leukotriene C4 generation (leukotriene C4 synthase activity inhibition rate) was measured.

[4] = test system: rattlesnake-derived phospholipase A2-II; assay: Phospholipase A2-II activity inhibitory action; format: biochemical; details: 3 μM
Procedure: The inhibitory action of the compound according to the present invention with respect to the activity of the present enzyme was examined using rattlesnake-derived phospholipase A2-II.
The rattlesnake-derived phospholipase A2-II was reacted with 0.030 μCi of 1-palmitoyl-2-[1-^14C]oleoyl-L-3-phosphatidylcholine and the amount of ^14C oleate which was a reaction product was measured by a radiation measurement method. 3 μM of the compound according to the present invention dissolved in dimethyl sulfoxide was added to the reaction system and the inhibition rate of ^14C oleate generation (phospholipase A2-II activity inhibition rate) was measured.

CC(=O)N1CCN(c2ccc(N)c(-n3ccnc3)c2)CC1 [Compound 1-1, 4-acetyl-1-(4-amino-3-imidazole-1-yl-phenyl)piperazine]
inhibition at 10 min, 10 µM (CYP2D6; pooled human liver microsomes, probe dextromethorphan (printed 5 M), 10 μM, read-out: inhibition rate in the shown concentration): 36%
IC50 (CYP2D6): > 10 µM
inhibition at 3 µM ([1]; 3 μM, substrate linoleic acid 260 μM, read-out: 15-lipoxygenase activity inhibition rate): 49%
IC50 ([1]; estimated from 49% inhibition at 3 μM, read-out: 50% inhibitory concentration with respect to 15-lipoxygenase activity): ~3 µM
MAP kinase 1 activity inhibition rate [2]: 13%
inhibition at 3 µM [3]: 27%
phospholipase A2-II activity inhibition rate [4]: 12%
